According to patent publication US11077116B2, “Isoxazole derivatives as inducers of fetal hemoglobin in erythroid precursor cells from beta-thalassemic patients” (RARE PARTNERS SRL, priority 2017, dated 2021):

System: ErPCs (erythroid precursor cells) of β-thalassemic patients
Assay: HPLC analysis of hemoglobins in cell lysates of treated ErPCs (two-phase liquid culture)
Assay type: cell-based, human
Conditions: for HbF induction: patient Th1 ErPCs (Table II); for HbF induction compared with HU: patient Th10 ErPCs (Table III); for HbF level in treated cells (table title): 100 nM as printed in title
Procedure: Patients were recruited following all the ethical requirements and the approval of the Ethical Committees of Ferrara Hospital. Blood samples were collected from 23 β-thalassemia patients after signature of the informed consent form.
The effects of isoxazole derivatives on cell growth and differentiation of erythroid precursors cells were determined by employing the two-phase liquid culture system and treated for five days with different concentration of the selected compound.
HPLC analyses were done on cell lysates derived from ErPCs of 23 patients and, through careful comparative analyses, we have monitored and quantified HbF, adult hemoglobins (HbA0 and HbA2) and the presence of α-aggregates. Generally, excess of α-globin chains is present in thalassemic patients that are deficient in β-globins, causing α-aggregates formation and precipitation. The α-aggregates reduction represents an important clinical result usually detectable in the presence of efficient HbF inducers.

CCNC(=O)c1noc(-c2cc(C(C)C)c(O)cc2O)c1NC(=O)c1ccc(OC)cc1 [Compound 1]
HbF induction: active in inducing HbF
aggregates α % (patient Th1 ErPCs, 85 nM, untreated C− 6.70): 5.90%
HbF % (patient Th1 ErPCs, 85 nM, untreated C− 15.47): 30.30%
HbA2 % (patient Th1 ErPCs, 85 nM, untreated C− 31.29): 21.39%
HbA0 % (patient Th1 ErPCs, 85 nM, untreated C− 46.54): 42.41%
HbF induction compared with HU: more active than HU in inducing HbF
aggregates α % (patient Th10 ErPCs, 85 nM, untreated C− 11.15): 2.26%
HbF % (patient Th10 ErPCs, 85 nM, untreated C− 17.57): 35.54%
HbA2 % (patient Th10 ErPCs, 85 nM, untreated C− 32.02): 25.81%
HbA0 % (patient Th10 ErPCs, 85 nM, untreated C− 39.26): 36.39%

CCNC(=O)c1noc(-c2cc(C(C)C)c(O)cc2O)c1NC(=O)CCN1CCOCC1 [Compound 2]
HbF induction: active in inducing HbF
aggregates α % (patient Th1 ErPCs, 50 nM, untreated C− 6.70): 2.81%
HbF % (patient Th1 ErPCs, 50 nM, untreated C− 15.47): 21.67%
HbA2 % (patient Th1 ErPCs, 50 nM, untreated C− 31.29): 24.82%
HbA0 % (patient Th1 ErPCs, 50 nM, untreated C− 46.54): 50.70%
HbF induction compared with HU: more active than HU in inducing HbF
aggregates α % (patient Th10 ErPCs, 50 nM, untreated C− 11.15): 2.02%
HbF % (patient Th10 ErPCs, 50 nM, untreated C− 17.57): 36.36%
HbA2 % (patient Th10 ErPCs, 50 nM, untreated C− 32.02): 25.29%
HbA0 % (patient Th10 ErPCs, 50 nM, untreated C− 39.26): 36.34%

NC(=O)NO [HU, hydroxyurea, reference compound]
HbF induction: active in inducing HbF
HbF level in treated cells (table title) (patient Th1 ErPCs, untreated 15.47%): 24.51%
aggregates α % (patient Th1 ErPCs, 100 μM, untreated C− 6.70): 2.80%
HbF % (patient Th1 ErPCs, 100 μM, untreated C− 15.47): 24.51%
HbA2 % (patient Th1 ErPCs, 100 μM, untreated C− 31.29): 33.19%
HbA0 % (patient Th1 ErPCs, 100 μM, untreated C− 46.54): 37.61%
HbF level in treated cells (table title) (patient Th10 ErPCs, untreated 17.57%): 19.42%
aggregates α % (patient Th10 ErPCs, 100 μm, untreated C− 11.15): 11.55%
HbF % (patient Th10 ErPCs, 100 μm, untreated C− 17.57): 19.42%
HbA2 % (patient Th10 ErPCs, 100 μm, untreated C− 32.02): 34.82%
HbA0 % (patient Th10 ErPCs, 100 μm, untreated C− 39.26): 34.22%
